“And” between values parts separate entries of the source, which are not always exact repeats. Equal values may be shown once. Where a name gives a salt, the structure may show the parent alone. The source made the active and inactive calls.
What was measured:
[1] = molecular target: T1, Cytochrome P450 1A2 (Homo sapiens, UniProt P05177);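 also: PubChem cytochrome P450 panel assay, CYP1A2 panel member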
T1 sequence (P05177 whole entry): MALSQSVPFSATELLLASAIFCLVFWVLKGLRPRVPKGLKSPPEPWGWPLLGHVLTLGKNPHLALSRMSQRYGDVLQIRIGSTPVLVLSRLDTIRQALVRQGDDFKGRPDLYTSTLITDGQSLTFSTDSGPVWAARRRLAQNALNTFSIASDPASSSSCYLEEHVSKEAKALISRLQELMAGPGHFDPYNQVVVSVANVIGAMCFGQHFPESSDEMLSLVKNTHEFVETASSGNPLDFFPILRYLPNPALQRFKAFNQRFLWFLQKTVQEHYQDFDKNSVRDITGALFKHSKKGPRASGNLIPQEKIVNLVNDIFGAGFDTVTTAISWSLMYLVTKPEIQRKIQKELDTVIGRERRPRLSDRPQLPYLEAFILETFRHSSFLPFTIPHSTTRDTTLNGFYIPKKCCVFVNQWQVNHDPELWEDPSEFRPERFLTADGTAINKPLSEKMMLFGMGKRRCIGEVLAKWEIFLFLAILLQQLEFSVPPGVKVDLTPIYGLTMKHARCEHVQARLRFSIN

[2] = Counterscreen for AddAB inhibitors: absorbance-based bacterial cell-based high throughput dose response assay for inhibitors of bacterial viability. [Related pubchem assays (depositor defined):AID435030, AID449728, AID449731, AID488942, AID488955, AID488956]; type: functional
[3] = system: Streptococcus; assay: GAS UMAA2166 growth inhibition – luminescence, BacTiterGlo, counter-screen for streptokinase expression inhibitor project, dose response (AID 1915); type: functional, organism-based;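 also: potency for reduction of bacterial viability or growth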
[4] = molecular target: T2, Insulin-degrading enzyme (Homo sapiens, UniProt P14735); assay: recombinant IDE activation, cell-free – biochemical, fluorescence polarization, counter-screen for IDE activator project, dose response (AID 588681)
T2 sequence (P14735 whole entry): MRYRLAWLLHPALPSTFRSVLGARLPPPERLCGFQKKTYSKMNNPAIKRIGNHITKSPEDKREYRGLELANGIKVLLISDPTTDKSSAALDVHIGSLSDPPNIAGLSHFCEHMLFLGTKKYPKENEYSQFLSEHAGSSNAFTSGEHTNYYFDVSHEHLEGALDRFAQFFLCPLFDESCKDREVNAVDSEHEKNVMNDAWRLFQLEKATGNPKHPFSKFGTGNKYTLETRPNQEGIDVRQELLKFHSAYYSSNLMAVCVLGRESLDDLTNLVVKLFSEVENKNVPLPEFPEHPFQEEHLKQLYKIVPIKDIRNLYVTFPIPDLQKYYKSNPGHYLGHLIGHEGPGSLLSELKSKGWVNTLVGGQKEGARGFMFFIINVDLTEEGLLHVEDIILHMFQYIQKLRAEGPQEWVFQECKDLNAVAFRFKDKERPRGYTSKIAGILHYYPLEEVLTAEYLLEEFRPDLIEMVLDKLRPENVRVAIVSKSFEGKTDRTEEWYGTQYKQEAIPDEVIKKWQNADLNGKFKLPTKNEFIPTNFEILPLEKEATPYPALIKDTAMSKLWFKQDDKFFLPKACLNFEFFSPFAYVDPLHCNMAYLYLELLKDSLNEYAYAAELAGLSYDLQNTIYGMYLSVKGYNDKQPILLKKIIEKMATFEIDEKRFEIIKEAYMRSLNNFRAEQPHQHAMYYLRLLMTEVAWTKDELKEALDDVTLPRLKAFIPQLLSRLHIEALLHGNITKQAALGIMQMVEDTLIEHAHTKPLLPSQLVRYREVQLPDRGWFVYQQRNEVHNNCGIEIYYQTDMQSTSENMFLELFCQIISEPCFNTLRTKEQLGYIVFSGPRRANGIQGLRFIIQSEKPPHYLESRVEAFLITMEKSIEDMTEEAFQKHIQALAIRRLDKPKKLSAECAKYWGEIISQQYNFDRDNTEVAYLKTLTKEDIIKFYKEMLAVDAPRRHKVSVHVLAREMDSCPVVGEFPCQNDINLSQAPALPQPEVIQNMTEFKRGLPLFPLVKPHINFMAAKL

[5] = system: INS1; assay: INS-1E survival protection against cytokine death – cell-based, luminescence, retest, dose response (AID 449756); type: functional; settings: Rattus norvegicus;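 also: cell death triggered by IL-1 beta plus TNF-alpha plus IFN-gamma mixture; protective hits raise ATP signal compared with cytokine alone wells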
[6] = molecular target: T3, Zinc finger protein mex-5 (Caenorhabditis elegans, UniProt Q9XUB2); assay: potency of MEX-5 RNA-binding blockers – biochemical, C. elegans, fluorescence polarization, dose response (AID 1960)
T3 sequence (Q9XUB2 whole entry): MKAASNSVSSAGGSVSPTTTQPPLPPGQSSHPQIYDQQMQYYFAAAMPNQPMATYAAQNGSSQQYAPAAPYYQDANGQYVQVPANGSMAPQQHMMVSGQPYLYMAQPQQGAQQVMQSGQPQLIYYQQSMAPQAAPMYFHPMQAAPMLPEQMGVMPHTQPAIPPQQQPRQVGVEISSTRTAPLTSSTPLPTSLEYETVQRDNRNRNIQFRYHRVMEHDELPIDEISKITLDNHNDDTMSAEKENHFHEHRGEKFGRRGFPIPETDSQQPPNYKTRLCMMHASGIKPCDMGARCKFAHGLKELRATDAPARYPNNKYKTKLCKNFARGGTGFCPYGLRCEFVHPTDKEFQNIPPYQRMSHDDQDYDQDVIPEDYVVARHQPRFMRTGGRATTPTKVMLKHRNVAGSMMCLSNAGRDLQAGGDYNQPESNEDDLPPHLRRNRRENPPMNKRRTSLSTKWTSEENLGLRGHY

[7] = molecular target: Serine/threonine-protein kinase MRCK alpha (Homo sapiens, UniProt Q5VT25); type: functional
[8] = molecular target: Focal adhesion kinase 1 (Homo sapiens, UniProt Q05397); type: functional;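 also: measured as one member of a kinome panel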
[9] = molecular target: MAP kinase-interacting serine/threonine-protein kinase 2 (Homo sapiens, UniProt Q9HBH9); type: functional
[10] = molecular target: Proto-oncogene tyrosine-protein kinase receptor Ret (Homo sapiens, UniProt P07949); type: functional;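 also: measured within a kinome-wide profiling panel, RET as the panel member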
[11] = molecular target: Tyrosine-protein kinase BTK (Homo sapiens, UniProt Q06187); type: functional
[12] = molecular target: Serine/threonine-protein kinase BRSK1 (Homo sapiens, UniProt Q8TDC3); type: functional;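 also: measured within a kinome-wide kinase panel, with the target listed as KIAA1811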
[13] = molecular target: Serine/threonine-protein kinase D2 (Homo sapiens, UniProt Q9BZL6); type: functional;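 also: measured against PRKD2 as one member of a kinome-wide kinase profiling panel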
[14] = molecular target: Casein kinase I isoform delta (Homo sapiens, UniProt P48730); type: functional;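 also: measured as one member (CSNK1D) of a kinome panel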
[15] = molecular target: Interleukin-1 receptor-associated kinase 4 (Homo sapiens, UniProt Q9NWZ3); type: functional
Sequence of Interleukin-1 receptor-associated kinase 4 (Q9NWZ3 whole entry): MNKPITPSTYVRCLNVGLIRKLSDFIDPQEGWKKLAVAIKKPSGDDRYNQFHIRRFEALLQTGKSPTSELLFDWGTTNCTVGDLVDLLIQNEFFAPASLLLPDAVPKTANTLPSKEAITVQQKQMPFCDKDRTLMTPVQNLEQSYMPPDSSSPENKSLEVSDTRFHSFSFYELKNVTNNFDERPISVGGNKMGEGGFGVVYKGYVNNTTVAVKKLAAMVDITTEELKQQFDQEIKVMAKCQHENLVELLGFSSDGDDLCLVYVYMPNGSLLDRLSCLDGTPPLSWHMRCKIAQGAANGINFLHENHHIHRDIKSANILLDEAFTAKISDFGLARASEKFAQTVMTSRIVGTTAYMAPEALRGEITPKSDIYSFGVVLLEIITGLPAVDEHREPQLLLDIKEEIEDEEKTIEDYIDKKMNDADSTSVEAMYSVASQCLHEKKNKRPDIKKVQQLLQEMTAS

Sequence of MAP kinase-interacting serine/threonine-protein kinase 2 (Q9HBH9 whole entry): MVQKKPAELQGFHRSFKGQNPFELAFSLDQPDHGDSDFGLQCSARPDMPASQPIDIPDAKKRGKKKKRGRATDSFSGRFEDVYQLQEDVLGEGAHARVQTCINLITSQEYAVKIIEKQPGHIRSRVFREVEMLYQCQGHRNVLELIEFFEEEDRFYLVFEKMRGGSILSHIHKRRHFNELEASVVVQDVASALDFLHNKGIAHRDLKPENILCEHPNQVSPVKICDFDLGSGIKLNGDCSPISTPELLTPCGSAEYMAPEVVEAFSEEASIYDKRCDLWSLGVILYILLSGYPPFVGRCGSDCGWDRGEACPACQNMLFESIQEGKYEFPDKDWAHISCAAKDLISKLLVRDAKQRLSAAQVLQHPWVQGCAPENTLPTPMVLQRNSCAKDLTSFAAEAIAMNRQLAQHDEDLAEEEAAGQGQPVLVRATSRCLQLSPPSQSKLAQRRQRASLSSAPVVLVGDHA
Sequence of Tyrosine-protein kinase BTK (Q06187 whole entry): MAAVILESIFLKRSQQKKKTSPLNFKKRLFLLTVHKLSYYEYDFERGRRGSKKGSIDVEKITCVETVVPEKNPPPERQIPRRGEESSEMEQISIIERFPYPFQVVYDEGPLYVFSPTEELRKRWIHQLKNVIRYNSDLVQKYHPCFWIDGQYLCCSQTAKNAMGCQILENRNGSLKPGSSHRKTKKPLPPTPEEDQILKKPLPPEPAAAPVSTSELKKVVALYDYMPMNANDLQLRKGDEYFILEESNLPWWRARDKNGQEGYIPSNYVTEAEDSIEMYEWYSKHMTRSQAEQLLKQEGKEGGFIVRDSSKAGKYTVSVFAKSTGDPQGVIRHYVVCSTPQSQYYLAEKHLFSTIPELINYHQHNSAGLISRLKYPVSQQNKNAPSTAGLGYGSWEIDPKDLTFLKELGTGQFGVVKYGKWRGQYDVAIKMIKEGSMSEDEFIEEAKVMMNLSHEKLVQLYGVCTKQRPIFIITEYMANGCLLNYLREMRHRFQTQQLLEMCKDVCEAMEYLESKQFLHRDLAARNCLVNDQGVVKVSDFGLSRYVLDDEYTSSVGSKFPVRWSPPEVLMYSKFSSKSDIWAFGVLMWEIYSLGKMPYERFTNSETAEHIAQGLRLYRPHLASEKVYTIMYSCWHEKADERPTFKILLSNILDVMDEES
Sequence of Proto-oncogene tyrosine-protein kinase receptor Ret (P07949 whole entry): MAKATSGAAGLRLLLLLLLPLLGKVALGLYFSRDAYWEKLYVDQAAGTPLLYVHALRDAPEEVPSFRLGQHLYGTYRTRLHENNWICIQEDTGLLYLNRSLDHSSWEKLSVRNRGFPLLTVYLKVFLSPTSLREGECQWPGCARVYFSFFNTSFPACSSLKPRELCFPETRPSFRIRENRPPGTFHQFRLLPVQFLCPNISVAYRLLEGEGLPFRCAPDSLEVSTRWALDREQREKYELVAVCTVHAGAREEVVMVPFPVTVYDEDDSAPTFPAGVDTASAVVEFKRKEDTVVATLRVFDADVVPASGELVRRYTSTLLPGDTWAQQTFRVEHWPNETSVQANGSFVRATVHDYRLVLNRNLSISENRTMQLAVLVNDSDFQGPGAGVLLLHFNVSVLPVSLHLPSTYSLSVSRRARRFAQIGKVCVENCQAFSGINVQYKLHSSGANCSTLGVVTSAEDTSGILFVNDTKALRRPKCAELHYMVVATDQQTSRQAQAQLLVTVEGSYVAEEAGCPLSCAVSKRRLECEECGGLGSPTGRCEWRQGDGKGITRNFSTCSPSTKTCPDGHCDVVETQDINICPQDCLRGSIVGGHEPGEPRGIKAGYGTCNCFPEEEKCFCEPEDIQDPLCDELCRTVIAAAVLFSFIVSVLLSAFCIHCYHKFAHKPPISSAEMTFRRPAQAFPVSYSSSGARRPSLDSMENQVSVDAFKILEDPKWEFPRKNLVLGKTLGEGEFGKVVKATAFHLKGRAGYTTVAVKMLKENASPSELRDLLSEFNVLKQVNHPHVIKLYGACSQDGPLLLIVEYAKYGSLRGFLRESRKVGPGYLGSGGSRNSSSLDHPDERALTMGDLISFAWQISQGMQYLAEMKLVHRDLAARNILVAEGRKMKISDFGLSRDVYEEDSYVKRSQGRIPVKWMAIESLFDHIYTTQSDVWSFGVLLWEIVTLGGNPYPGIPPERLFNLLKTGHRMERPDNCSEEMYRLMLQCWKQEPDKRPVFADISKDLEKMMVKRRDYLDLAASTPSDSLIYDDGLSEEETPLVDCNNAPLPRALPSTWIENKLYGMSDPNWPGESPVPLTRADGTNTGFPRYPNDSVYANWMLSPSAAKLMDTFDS
Sequence of Focal adhesion kinase 1 (Q05397 whole entry): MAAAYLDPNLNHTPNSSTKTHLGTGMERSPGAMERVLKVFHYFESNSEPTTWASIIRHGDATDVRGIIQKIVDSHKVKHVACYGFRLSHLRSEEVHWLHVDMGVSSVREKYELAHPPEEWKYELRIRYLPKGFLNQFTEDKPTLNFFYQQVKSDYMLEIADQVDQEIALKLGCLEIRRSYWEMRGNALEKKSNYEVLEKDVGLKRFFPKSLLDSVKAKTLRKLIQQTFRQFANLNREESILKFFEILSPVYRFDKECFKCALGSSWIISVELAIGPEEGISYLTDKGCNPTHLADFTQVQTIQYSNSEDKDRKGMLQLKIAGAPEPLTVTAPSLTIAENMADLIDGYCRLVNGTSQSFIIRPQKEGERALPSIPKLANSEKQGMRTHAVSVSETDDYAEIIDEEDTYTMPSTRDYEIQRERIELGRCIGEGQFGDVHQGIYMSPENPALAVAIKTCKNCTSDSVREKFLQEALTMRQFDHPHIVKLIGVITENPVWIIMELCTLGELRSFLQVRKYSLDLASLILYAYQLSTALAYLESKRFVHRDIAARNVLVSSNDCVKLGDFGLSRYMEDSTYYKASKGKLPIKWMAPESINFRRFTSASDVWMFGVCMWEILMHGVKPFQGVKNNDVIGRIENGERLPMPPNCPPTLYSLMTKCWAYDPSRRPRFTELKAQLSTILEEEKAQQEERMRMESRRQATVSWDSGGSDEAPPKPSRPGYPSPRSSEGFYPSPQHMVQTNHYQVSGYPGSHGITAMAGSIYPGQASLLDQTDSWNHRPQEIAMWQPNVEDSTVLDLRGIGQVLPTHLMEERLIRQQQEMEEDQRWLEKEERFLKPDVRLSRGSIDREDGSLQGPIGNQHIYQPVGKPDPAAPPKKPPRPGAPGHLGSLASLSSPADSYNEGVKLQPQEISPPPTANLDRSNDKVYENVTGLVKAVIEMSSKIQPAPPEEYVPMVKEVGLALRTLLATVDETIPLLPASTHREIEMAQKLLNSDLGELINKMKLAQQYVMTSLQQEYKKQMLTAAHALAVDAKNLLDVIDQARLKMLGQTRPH
Sequence of Serine/threonine-protein kinase D2 (Q9BZL6 whole entry, canonical isoform): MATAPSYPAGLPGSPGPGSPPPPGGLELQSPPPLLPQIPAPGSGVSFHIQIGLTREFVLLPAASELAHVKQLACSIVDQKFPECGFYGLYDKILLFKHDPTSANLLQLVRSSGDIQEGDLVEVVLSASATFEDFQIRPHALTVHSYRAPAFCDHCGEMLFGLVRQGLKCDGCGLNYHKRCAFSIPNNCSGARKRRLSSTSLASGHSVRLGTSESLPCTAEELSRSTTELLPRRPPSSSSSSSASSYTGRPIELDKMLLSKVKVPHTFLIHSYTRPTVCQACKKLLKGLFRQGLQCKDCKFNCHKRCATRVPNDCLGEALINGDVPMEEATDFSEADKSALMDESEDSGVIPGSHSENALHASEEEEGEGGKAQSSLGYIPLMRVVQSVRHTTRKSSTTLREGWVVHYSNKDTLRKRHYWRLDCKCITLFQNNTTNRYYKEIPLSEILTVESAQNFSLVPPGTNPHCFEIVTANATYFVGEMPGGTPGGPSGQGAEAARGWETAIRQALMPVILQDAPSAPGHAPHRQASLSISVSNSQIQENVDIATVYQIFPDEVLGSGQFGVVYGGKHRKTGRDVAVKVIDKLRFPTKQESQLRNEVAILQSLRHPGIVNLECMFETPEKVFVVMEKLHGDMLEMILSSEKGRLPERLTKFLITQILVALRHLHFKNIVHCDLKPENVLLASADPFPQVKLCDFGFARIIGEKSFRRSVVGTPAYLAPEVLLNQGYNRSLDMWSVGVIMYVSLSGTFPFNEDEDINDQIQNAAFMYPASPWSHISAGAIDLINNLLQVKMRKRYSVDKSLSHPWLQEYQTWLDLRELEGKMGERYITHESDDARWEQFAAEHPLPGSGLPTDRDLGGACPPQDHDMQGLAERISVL
Sequence of Casein kinase I isoform delta (P48730 whole entry, canonical isoform): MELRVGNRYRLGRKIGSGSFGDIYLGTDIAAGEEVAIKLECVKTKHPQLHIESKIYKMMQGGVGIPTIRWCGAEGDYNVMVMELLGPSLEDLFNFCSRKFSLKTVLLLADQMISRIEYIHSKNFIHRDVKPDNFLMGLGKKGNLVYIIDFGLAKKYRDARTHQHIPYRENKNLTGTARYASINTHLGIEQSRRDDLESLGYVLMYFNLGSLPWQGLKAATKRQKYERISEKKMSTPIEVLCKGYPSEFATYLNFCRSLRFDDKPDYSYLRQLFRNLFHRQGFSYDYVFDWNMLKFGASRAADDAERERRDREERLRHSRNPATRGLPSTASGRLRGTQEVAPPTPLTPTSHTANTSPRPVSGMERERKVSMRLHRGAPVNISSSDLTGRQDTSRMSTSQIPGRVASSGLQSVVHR

For CCC(C)n1c(NC(=O)c2ccccc2)c(C#N)c2nc3ccccc3nc21 (stereo not given), the AC50 [1] was 25.1 µM (inconclusive).

In the case of CCN1/C(=C\c2ccc3ccccc3[n+]2CC)Sc2cc(C)ccc21, the IC50 [2] is reported as 37.5 µM (inactive).

In the case of CCCCCCCCCCOC(=O)C[n+]1c(COc2ccc(C)cc2)n(C)c2ccccc21, the EC50 [3] is reported as 7.92 µM (active), the EC50 [4] is reported as 16.9 µM (inactive) and the AC50 [5] is reported as 3.4 µM (active).

With CC[C@@H](CO)NC(=O)[C@@H]1C=C2c3cccc4c3c(cn4C)C[C@H]2N(C)C1 [METHYSERGIDE MALEATE] the EC50 [6] was 12.3 µM (active) and 20 µM (inconclusive).

With CN1CCN(c2nc(C3=C(c4c[nH]c5ccccc45)C(=O)NC3=O)c3ccccc3n2)CC1 [SOTRASTAURIN] the Ki [7] was > 10 µM (inactive), the Ki [8] was > 6.31 µM (inactive) and the Ki [9] was > 10 µM (inactive). The Ki [10] was > 2 µM (inactive), the Ki [11] was > 3.98 µM (inactive) and the Ki [12] was 2.51 µM (active). The Ki [13] was > 10 µM (inactive), the Ki [14] was > 7.94 µM (inactive) and the Ki [15] was > 10 µM (inactive).

Source: ChEMBL document CHEMBL1201862, “PubChem BioAssay data set” (2004)
